Measured values published in publication PMC10307885, “A Phase 1/2 trial of SRA737 (a Chk1 inhibitor) administered orally in patients with advanced cancer” (British Journal of Cancer, 2023).
Values joined by “and” are separate entries in the source; they are usually repeats but may differ in a detail not shown here. Equal entries are not always repeated. Where two headings read alike, the source gives them in different places.

Assay: Plasma SRA737 pharmacokinetics (LC-MS assay, non-compartmental methods)
Type: in vivo, human
Conditions: for Cmax / AUC(0-t) / Tmax / Vd/F / half-life: human, oral; for AUC(0-t): read-out: AUC0-24; for Tmax / Vd/F / half-life: plasma
Procedure: Serial sampling of blood for PK assessment was conducted before and after dosing with single-agent SRA737 (9 time points over 48 h) on Day −7 to Day −4 and on Cycle 1 Day 22; in addition, samples were drawn pre-dose on Days 1, 8, and 15 of Cycle 1, and pre-dose on Day 1 of each subsequent cycle. Plasma SRA737 concentrations were quantified using a fully validated liquid chromatography-mass spectrometry assay with a lower limit of quantitation of 5 ng/ml as previously described.
Safety and response variables were summarized using descriptive statistics and PK parameters were determined using non-compartmental methods. A concentration-effect model was used to evaluate the relationship between plasma SRA737 concentrations and the mean change from baseline in QT interval corrected for heart rate using Fridericia’s formula (QTcF) in time-matched ECG measurements and PK samples collected on Day −7 to Day −4 and during Cycle 1.

[1] = 600 mg, repeat doses, N 7, plasma, mean ± standard deviation
[2] = 800 mg, repeat doses, N 31, plasma, mean ± standard deviation
[3] = 1000 mg, repeat doses, N 16, plasma, mean ± standard deviation
[4] = single SRA737 dose, at or above the dose level of 300 mg QD

## N#Cc1cnc(Nc2cc(NC[C@H]3CNCCO3)c(C(F)(F)F)cn2)cn1 [SRA737, (R)-5-((4-((morpholin-2-ylmethyl)amino)-5-(trifluoromethyl)pyridin-2-yl)amino)pyr azine-2-carbonitrile]
600 mg vs 1000 mg dose levels
  Systemic exposure (Cmax and AUC) between dose levels: tended to be comparable
[1]
  CL/F: 26.9 ± 2.85 L/h
  Cmin: 230 ± 123 ng/mL
  Cmax: 2470 ± 328 ng/mL
  AUC(0-t): 22100 ± 2450 ng·h/mL
800 mg QD and 1000 mg QD
  Exposure relative to minimum effective concentration extrapolated from preclinical models: exceeded the minimum effective concentration
800 mg QD, repeat doses, N 31, plasma, mean ± standard deviation
  Cmin: 312 ng/mL and 312 ± 166 ng/mL
[2]
  CL/F: 38.0 ± 22.2 L/h
  Cmax: 2480 ± 679 ng/mL
  AUC(0-t): 24700 ± 8580 ng·h/mL
[3]
  CL/F: 39.7 ± 9.20 L/h
  Cmin: 499 ± 185 ng/mL
  Cmax: 2490 ± 666 ng/mL
  AUC(0-t): 27200 ± 9210 ng·h/mL
600 mg, repeat doses on C1D8, C1D22, C2D8, C2D15 or C2D22, N 7, plasma, median (minimum-maximum), read-out: tmax
  Tmax: 2 h
600 mg, repeat doses, N 7, plasma, mean ± standard deviation, read-out: Vd/F
  Vd/F: 320 ± 61.1 L
600 mg, repeat doses, N 7, plasma, mean ± standard deviation, read-out: t½ (converted)
  half-life: 8.22 ± 1.27 h
800 mg, repeat doses on C1D8, C1D22, C2D8, C2D15 or C2D22, N 31, plasma, median (minimum-maximum), read-out: tmax
  Tmax: 2 h
800 mg, repeat doses, N 31, plasma, mean ± standard deviation, read-out: Vd/F
  Vd/F: 454 ± 299 L
800 mg, repeat doses, N 31, plasma, mean ± standard deviation, read-out: t½ (converted)
  half-life: 8.25 ± 1.17 h
1000 mg, repeat doses on C1D8, C1D22, C2D8, C2D15 or C2D22, N 16, plasma, median (minimum-maximum), read-out: tmax
  Tmax: 2 h
1000 mg, repeat doses, N 16, plasma, mean ± standard deviation, read-out: Vd/F
  Vd/F: 477 ± 87 L
1000 mg, repeat doses, N 16, plasma, mean ± standard deviation, read-out: t½ (converted)
  half-life: 8.45 ± 1.06 h
1000 mg, repeated doses of 600, 800 and 1000 mg QD, read-out: Estimated elimination half-life (t½) values, range
  half-life: 6.23 to 10.4 h
1000 mg, repeated doses of 600, 800 and 1000 mg QD, read-out: Tmax, generally occurred
  Tmax: 2 to 4 h
1000 mg, repeated doses of 600, 800 and 1000 mg QD, read-out: Tmax, ranged
  Tmax: 1 to 6 h
1000 mg, repeated doses of 600, 800 and 1000 mg QD, read-out: individual apparent volume of distribution (Vd/F) values, range
  Vd/F: 215 to 1590 L
[4]
  time plasma concentration of 100 nM (37.9 ng/mL) was achieved, all patients: at least 24 h
  time plasma concentration of 100 nM (37.9 ng/mL) was achieved, majority of patients: up to 48 h
